# Measured values reported in patent US20130158112A1, “COMPOSITIONS AND METHODS FOR INHIBITING BETA AMYLOID SECRETION” (priority 2011, published 2013).
# “Also recorded” adds a separate entry of the source.
# How the values were obtained:
# [1] = system: α-secretase; assay: α-Secretase activity assay in lysates of treated H4βAPP695 wt cells; type: cell-based, human
# Method: H4βAPP695 wt were treated with vehicle or 1 for 24 h, washed with ice cold PBS, and lysed in extraction buffer provided with the α-secretase assay kit (R&D Systems) for 10 min on ice and centrifuged at 10000 g for 1 min to remove nuclei. Protein content of the supernatant was determined by the BCA assay, and 50 μg of lysate protein were added to wells of a 96-well assay plate and the volume was adjusted to 100 μL using the lysis buffer. 100 μL of reaction buffer and 10 μL of the fluorogenic substrate were added, and the plates were incubated at 37° C. in the dark with gentle agitation for 2 h. Activity was detected in a fluorescence plate reader using an excitation of 355 nm and an emission of 510 nm after subtraction of fluorescence in the absence of cell lysate.
# We measured the activity of α-secretase using a fluorogenic peptide substrate in lysates of H4βAPP695 wt cells. […] However, addition of compound 1 directly to the cell lysates, rather than to the live cells, had no effect on α-secretase activity (data not shown), implying an indirect cellular activation of this pathway rather than direct activation of the α-secretase protease by compound 1.
# [2] = system: APP; assay: Western blot of APP processing products (sAPPα, sAPPβ, holoAPP, αCTF) in H4βAPP695 wt cells; type: cell-based, human
# [3] = system: APP; assay: as above; type: cell-based, human; conditions: 10 μM, 24 h
# Method: The alternate processing of holoAPP by either the β-secretase (a precursor to Aβ production) or α-secretase (which clips in the middle of the Aβ region) is shown in FIG. 2A. Compound 1 induced decrease in total Aβ secretion may be due to its effect on APP processing or due to decreased production of its precursor APP. To probe its mechanism, H4βAPP695 wt cells were treated with 10 μM 1 for 24 h. Using Western blot assays, we measured secreted APPα (sAPPα) and APPβ (sAPPβ) in the conditioned media, and full-length holo-APP and the 83 residue long α-C-terminal fragment (α-CTF) in cell lysate. […] Thus, 1 appears to decrease Aβ secretion by activating the α-secretase pathway, a favorable pathway as the large secreted sAPPα protein is reported to have neurotrophic and neuroprotective activities.
# [4] = system: Aβ secretion; assay: Secreted Aβ in cultured primary neurons from APP/PS1 transgenic mice; type: cell-based, mouse; conditions: 24 h incubation
# Method: H4βAPP695 wt cells, a human […] cell line stably transfected with a wtβAPP695 expression vector construct under the control of a CMV promoter (kindly provided by Dr. Chris Eckman from Mayo Clinic, Florida) were cultured as previously described. Twenty-four hours before drug treatment, the media was replaced with serum-free media. Cells were then incubated with drugs (dissolved in DMSO) or vehicle for 24 h for collection of conditioned media and cell lysates. For the PKC inhibitors experiment, three inhibitors were treated 30 min prior to drug challenge. Primary cortical neurons were prepared from embryonic day 18 APP and presenilin 1 (APPswe, PSEN1dE9) transgenic mice on the C57BL/6 genetic background (Jackson Laboratories, strain no. 5864) as previously described. THLE-3 human hepatoma cells (from ATCC) were plated in 24-well plates that were precoated with 10 μg/mL bovine serum albumin, 10 μg/mL fibronectin, and 30 μg/mL bovine type I collagen. […] Transepithelial resistance was measured in each well and found to be >160 Ω/cm^2. […] Four hours later, the basal chamber media was harvested and used to measure lucifer yellow fluorescence to confirm monolayer integrity as well as for treatment of H4βAPP695 wt cells for 24 h prior to analysis of secreted Aβ, which was compared to the effect of direct addition of 10 μM of the corresponding drug.
# [5] = system: H4βAPP695 wt cells; assay: Cytotoxicity by total cell protein content (BCA) of H4βAPP695 wt cells; conditions: 10 μM
smiles,measurement,setting,value
O=C(NCCSCc1cccc(Cl)c1)c1c(Cl)cccc1Cl [Compound 1],α-secretase activity after treatment of cells,[1],induced
same,increase in α-secretase activity,[1]; cells pretreated with 10 μM for 24 h,20%
same,time at which α-CTF increase is first observed,[2]; 10 μM,2 h
same,time to maximal α-CTF levels,[2]; 10 μM,≤ 8 h
same,increase in cellular α-CTF in presence of cyclohexamide,[2]; 4 h treatment,not blocked
same,cellular full length (holo) APP level,[3],without altering holoAPP levels
same,increase of cellular α-CTF levels,[3],over 2 fold
same,increase of sAPPα levels,[3],over 3 fold
same,sAPPα level,[3],caused an increase; also recorded: increased
same,sAPPβ level,[3],without altering
same,αCTF level,[3],caused an increase; also recorded: increased
same,secreted Aβ levels in primary neurons,[4],effective in reducing secreted Aβ levels
same,"cytotoxicity, measured by total cell protein content",[5],did not have significant cytotoxicity
